Experimental data taken from patent publication US11311522B1 (Cavion, Inc., priority 2018, dated 2022).

Experiment: PN001/Part I: safety and tolerability
Assay type: in vivo, human
Description: Safety was monitored throughout by adverse events, vital signs, and repeated clinical and laboratory evaluations. […] All adverse events were mild or moderate and severity and transient.

CC(C)c1ccc(CC(=O)N[C@H](C)c2ccc(OCC(F)(F)F)cn2)cc1 [CX-8998]
Abnormal physical sensation (1 mg): 0 n (%) | At least 1 adverse event (1 mg): 2 (33.3) n (%) | Dizziness (1 mg): 0 n (%) | Drowsiness (1 mg): 0 n (%) | Elevated mood (1 mg): 0 n (%) | Euphoric mood (1 mg): 0 n (%) | Eye Disorders (1 mg): 0 n (%) | Fatigue (1 mg): 0 n (%) | Feeling abnormal (1 mg): 0 n (%) | Floating feeling (1 mg): 0 n (%) | Gastro-intestinal Disorders (1 mg): 0 n (%) | Hangover effect (1 mg): 0 n (%) | Headache (1 mg): 2 (33.3) n (%) | Indifference (1 mg): 0 n (%) | Injury, Poisoning and Procedural Complications (1 mg): 0 n (%) | Insomnia (1 mg): 0 n (%) | Intoxication (1 mg): 0 n (%) | Irritability (1 mg): 0 n (%) | Lethargy (1 mg): 0 n (%) | Nervous System Disorders (1 mg): 2 (33.3) n (%) | Paraesthesia (1 mg): 0 n (%) | Paraesthesia oral (1 mg): 0 n (%) | Paraesthesia tongue (1 mg): 0 n (%) | Psychiatric Disorders (1 mg): 0 n (%) | Racing thoughts (1 mg): 0 n (%) | Relaxed (1 mg): 0 n (%) | Sensory disturbance (1 mg): 0 n (%) | Vision blurred (1 mg): 0 n (%) | Visual disturbance (1 mg): 0 n (%) | Vivid dreams (1 mg): 0 n (%) | Abnormal physical sensation (1 mg fed): 0 n (%) | At least 1 adverse event (1 mg fed): 0 n (%) | Dizziness (1 mg fed): 0 n (%) | Drowsiness (1 mg fed): 0 n (%) | Elevated mood (1 mg fed): 0 n (%) | Euphoric mood (1 mg fed): 0 n (%) | Eye Disorders (1 mg fed): 0 n (%) | Fatigue (1 mg fed): 0 n (%) | Feeling abnormal (1 mg fed): 0 n (%) | Floating feeling (1 mg fed): 0 n (%) | Gastro-intestinal Disorders (1 mg fed): 0 n (%) | Hangover effect (1 mg fed): 0 n (%) | Headache (1 mg fed): 0 n (%) | Indifference (1 mg fed): 0 n (%) | Injury, Poisoning and Procedural Complications (1 mg fed): 0 n (%) | Insomnia (1 mg fed): 0 n (%) | Intoxication (1 mg fed): 0 n (%) | Irritability (1 mg fed): 0 n (%) | Lethargy (1 mg fed): 0 n (%) | Nervous System Disorders (1 mg fed): 0 n (%) | Paraesthesia (1 mg fed): 0 n (%) | Paraesthesia oral (1 mg fed): 0 n (%) | Paraesthesia tongue (1 mg fed): 0 n (%) | Psychiatric Disorders (1 mg fed): 0 n (%) | Racing thoughts (1 mg fed): 0 n (%) | Relaxed (1 mg fed): 0 n (%) | Sensory disturbance (1 mg fed): 0 n (%) | Vision blurred (1 mg fed): 0 n (%) | Visual disturbance (1 mg fed): 0 n (%) | Vivid dreams (1 mg fed): 0 n (%) | Abnormal physical sensation (3 mg): 0 n (%) | At least 1 adverse event (3 mg): 3 (50.0) n (%) | Dizziness (3 mg): 0 n (%) | Drowsiness (3 mg): 0 n (%) | Elevated mood (3 mg): 0 n (%) | Euphoric mood (3 mg): 1 (16.7) n (%) | Eye Disorders (3 mg): 0 n (%) | Fatigue (3 mg): 0 n (%) | Feeling abnormal (3 mg): 0 n (%) | Floating feeling (3 mg): 0 n (%) | Gastro-intestinal Disorders (3 mg): 0 n (%) | Hangover effect (3 mg): 0 n (%) | Headache (3 mg): 0 n (%) | Indifference (3 mg): 0 n (%) | Injury, Poisoning and Procedural Complications (3 mg): 0 n (%) | Insomnia (3 mg): 0 n (%) | Intoxication (3 mg): 0 n (%) | Irritability (3 mg): 0 n (%) | Lethargy (3 mg): 0 n (%) | Nervous System Disorders (3 mg): 0 n (%) | Paraesthesia (3 mg): 0 n (%) | Paraesthesia oral (3 mg): 0 n (%) | Paraesthesia tongue (3 mg): 0 n (%) | Psychiatric Disorders (3 mg): 1 (16.7) n (%) | Racing thoughts (3 mg): 0 n (%) | Relaxed (3 mg): 0 n (%) | Sensory disturbance (3 mg): 0 n (%) | Vision blurred (3 mg): 0 n (%) | Visual disturbance (3 mg): 0 n (%) | Vivid dreams (3 mg): 0 n (%)
